# Measurements from ChEMBL document CHEMBL1135188, “Synthesis and anti-tumor activity of novel combretastatins: combretocyclopentenones and related analogues” (Bioorg Med Chem Lett, 2002).
# Test system: HCT-116
# Assay: Cytotoxicity expressed as inhibitory concentration required to reduce the cell growth of HCT116 human colon carcinoma cell line
# Type: functional, cell-based
# Conditions: not given
row,Structure (SMILES),IC50
1,COc1ccc(C2=C(c3cc(OC)c(OC)c(OC)c3)CCC2)cc1,> 1 µg/mL
2,COc1ccc(C2=C(c3cc(OC)c(OC)c(OC)c3)C(=O)CC2)cc1,0.021 µg/mL
3,COc1ccc(C2=C(c3cc(OC)c(OC)c(OC)c3)C(=O)C=C2)cc1,0.013 µg/mL
4,COc1ccc(C2=C(c3cc(OC)c(OC)c(OC)c3)C(=O)CC2)cc1O,0.012 µg/mL
5,COc1ccc(C2=C(c3cc(OC)c(OC)c(OC)c3)C(O)CC2)cc1 (configuration not stated),0.045 µg/mL
6,COc1cc(C2=C(c3ccc4ccccc4c3)CCC2=O)cc(OC)c1OC,0.031 µg/mL
7,COc1ccc(C2=C(c3cc(OC)c(OC)c(OC)c3)C(=O)CC2)cc1N,0.008 µg/mL
8,COc1ccc(C2=C(c3cc(OC)c(OC)c(OC)c3)COC2)cc1,> 1 µg/mL

# Test system: B16
# Assay: Cytotoxicity expressed as inhibitory concentration required to reduce the cell growth of B16 murine melanoma cell line
# Type: functional, cell-based
# Conditions: Mus musculus
row,Structure (SMILES),IC50
1,COc1ccc(C2=C(c3cc(OC)c(OC)c(OC)c3)CCC2)cc1,> 1 µg/mL
2,COc1ccc(C2=C(c3cc(OC)c(OC)c(OC)c3)C(=O)CC2)cc1,0.015 µg/mL
3,COc1ccc(C2=C(c3cc(OC)c(OC)c(OC)c3)C(=O)C=C2)cc1,0.011 µg/mL
4,COc1ccc(C2=C(c3cc(OC)c(OC)c(OC)c3)C(=O)CC2)cc1O,0.013 µg/mL
5,COc1ccc(C2=C(c3cc(OC)c(OC)c(OC)c3)C(O)CC2)cc1 (configuration not stated),0.039 µg/mL
6,COc1cc(C2=C(c3ccc4ccccc4c3)CCC2=O)cc(OC)c1OC,0.029 µg/mL
7,COc1ccc(C2=C(c3cc(OC)c(OC)c(OC)c3)C(=O)CC2)cc1N,0.008 µg/mL
8,COc1ccc(C2=C(c3cc(OC)c(OC)c(OC)c3)COC2)cc1,> 1 µg/mL

# Test system: not listed separately
# Assay: Inhibition ratio expressed as percentage showing significant anti-tumor activity in BDF1 mice bearing Lewis lung carcinoma cells was determined
# Type: functional
# Conditions: not given
row,Structure (SMILES),Ratio
1,COc1ccc(C2=C(c3cc(OC)c(OC)c(OC)c3)C(=O)CC2)cc1N,59

# Test system: A-431
# Assay: Cytotoxicity expressed as inhibitory concentration required to reduce the cell growth of A431 human epidermal carcinoma cell line
# Type: functional, cell-based
# Conditions: not given
row,Structure (SMILES),IC50
1,COc1ccc(C2=C(c3cc(OC)c(OC)c(OC)c3)C(=O)CC2)cc1,0.021 µg/mL
2,COc1ccc(C2=C(c3cc(OC)c(OC)c(OC)c3)C(=O)CC2)cc1O,0.009 µg/mL
3,COc1cc(C2=C(c3ccc4ccccc4c3)CCC2=O)cc(OC)c1OC,0.034 µg/mL
4,COc1ccc(C2=C(c3cc(OC)c(OC)c(OC)c3)C(=O)CC2)cc1N,0.009 µg/mL
5,COc1cccc2c1C(=O)c1c(O)c3c(c(O)c1C2=O)C[C@@](O)(C(=O)CO)C[C@@H]3O[C@H]1C[C@H](N)[C@H](O)[C@H](C)O1 [DOXORUBICIN],0.117 µg/mL
